US20040038216A1, “Method for the structural determination of ligands bound to macromolecular targets by nuclear magnetic resonance” (priority 2002, published 2004)
Marks after values point to notes of the source that are not given here.

Legend:
Bcl-xL [1] = target: T1, Bcl-xL (Homo sapiens, UniProt Q07817, DEL45-84); experiment: STD-NMR (saturation transfer difference) spectra on Bcl-xL/ligand complexes; type: binding
T1 construct: deletion mutant of Bcl-xL (that lacks the putative carboxy-terminal transmembrane region and residues 49-88) was used; His tag (C); made in house; host or cells: E. coli BL21(DE3)
T1 sequence (Q07817 with tags, fused parts or gaps DEL45-84 limits assumed): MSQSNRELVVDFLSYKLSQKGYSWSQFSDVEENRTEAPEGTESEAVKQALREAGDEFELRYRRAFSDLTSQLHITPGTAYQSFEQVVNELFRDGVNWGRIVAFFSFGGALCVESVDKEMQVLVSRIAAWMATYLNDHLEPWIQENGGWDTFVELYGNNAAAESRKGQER
Method: A sample of unlabeled Bcl-xL as well as samples of perdeuterated Bcl-xL that were selectively protonated at the specific amino acids Arg, Tyr, Leu, Ile, and Met were prepared in accordance with the procedures of Example 1. Samples of 200 uM 4-(4-fluorophenyl)benzoic acid (3, Array), [drawing 1]
(§1) 500 uL of the ligand solution was transferred to each of 8 NMR tubes (Wilmad). The protein solutions were then added to the NMR tubes to a final protein concentration of 40 uM in the following manner: Sample 1: unlabeled Bcl-xL; Sample 2: U-^2H-Bcl-xL; Sample 3: U-^2H-{^1H-R}-Bcl-xL; Sample 4: U-^2H-{^1H-Y}-Bcl-xL; Sample 5: U-^2H-{^1H-L}-Bcl-xL; Sample 6: U-2H-{^1H-I}-Bcl-xL; Sample 7: U-^2H-{^1H-M}-Bcl-xL; Sample 8: No protein.
STD-NMR spectra (Mayer and Meyer, J. Am. Chem. Soc. 2001, 123, 6108-6117) were determined on each of the eight samples. All NMR experiments were performed at 300K on a Bruker Avance DRX500 system equipped with a CryoProbe. The pulse sequence for the ID STD-NMR spectra was identical to that used by Mayer and Meyer (2001) except that a CPMG T2-filter was used instead of a T1p-filter to remove background protein resonances. Subtraction of the on- and off-resonance spectra was performed internally and a WATERGATE sequence was used for suppression of the residual solvent signal. On-resonance irradiation of the protein was performed by using a train of Gauss-shaped pulses of 2.5 ms length separated by a 2.5 ms delay, and alternating on-resonance irradiation was applied at 0.8 and 3.0 ppm. Off-resonance irradiation was applied at −10.0 ppm. 280 shaped pulses were used in the pulse train, leading to a total saturation time of 1.4 s. All spectra were acquired with a 100 ms T2-filter, 1024 complex points, 1024 scans, a ^1H sweep width of 8333 Hz, and a total recycle time of 2.0 s.
All NMR spectra were processed and analyzed on Silicon Graphics computers using standard protocols well-known in the art. STD-NMR spectra for biaryl 3 in the presence of unlabeled Bcl-xL (Sample 1), U-^2H-Bcl-xL (Sample 2), and no protein are shown in FIG. 5. […] Therefore, the signal intensity for each resonance of the biaryl 3 in the presence of unlabeled and perdeuterated protein was taken as the maximum and minimum intensity, respectively, for the NOE in the presence of the selectively protonated samples. The intensity of the NOEs could then be calculated using the following equation, [formula]
where I(norm) is the normalized intensity in the STD-NMR spectrum for a given biaryl resonance, and I(SL), I(^2H), and I(^1H) are the intensities of the resonance in the presence of the selectively protonated, perdeuterated, and unlabeled protein, respectively. The normalized NOE intensities can be visualized by simple subtraction of the STD-NMR spectrum of the ligand in the presence of deuterated protein from each of the selectively protonated samples. In these spectra, it is clearly seen that an arginine residue is in close contact with the benzoic acid portion of 3 (magnetization transfer to HA and HB/C), but not the fluorophenyl portion. It is also clear that a tyrosine and leucine residue is in contact with the fluorophenyl portion of 3 (magnetization transfer to HD and HB/C), but not the benzoic acid portion. Spectra shown in (E) and (F) indicate that no portion of the biaryl is in contact with any isoleucine or methionine residues.
These NOE intensities were then converted into distance restraints for use in structural calculations in the following manner. For any given amino acid type and ligand resonance, normalized NOE intensities less than 5% were treated as having no interaction. Therefore, distances between that ligand atom and all protons on all amino acids of that specific type were set at greater than 5 Å. For NOE intensities greater than 15%, ambiguous distance restraints were assigned. […]

Bcl-xL [2] = target: Bcl-xL (Homo sapiens, UniProt Q07817); experiment: NMR-based screening; type: binding; conditions: independently determined
Chain of Bcl-xL (Homo sapiens, UniProt Q07817) (Q07817 whole entry): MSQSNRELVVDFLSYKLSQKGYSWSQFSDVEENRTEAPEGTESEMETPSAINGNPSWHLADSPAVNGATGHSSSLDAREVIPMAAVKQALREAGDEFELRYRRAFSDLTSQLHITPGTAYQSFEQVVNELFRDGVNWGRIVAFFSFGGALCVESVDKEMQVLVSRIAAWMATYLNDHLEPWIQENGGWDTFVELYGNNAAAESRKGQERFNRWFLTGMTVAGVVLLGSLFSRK
Method: as §1

[3] = ligand proton HA, Sample 1 Unlabeled Bcl-xL
[4] = ligand proton HA, Sample 2 U-2H-Bcl-xL
[5] = ligand proton HD, Sample 1 Unlabeled Bcl-xL
[6] = ligand proton HD, Sample 2 U-2H-Bcl-xL
[7] = ligand protons HB/HC, Sample 1 Unlabeled Bcl-xL
[8] = ligand protons HB/HC, Sample 2 U-2H-Bcl-xL

For O=C(O)c1ccc(-c2ccc(F)cc2)cc1 [biaryl 3, 4-(4-fluorophenyl)benzoic acid], the “Normalized NOE intensity” value (Bcl-xL [1]; HA protons, in the presence of U-2H-{1H-Y}-Bcl-xL) was 3%, the “Normalized NOE intensity” value (Bcl-xL [1]; HD protons, in the presence of U-2H-{1H-Y}-Bcl-xL) was 22% and the “Distance restraint derived from the NOE intensity data” value (shortened to “Distance restraint derived”) (Bcl-xL [1]; ligand proton HA to arginine protons, Sample 3 U-2H-{1H-R}-Bcl-xL) was <4^a Å. The “Distance restraint derived” value (Bcl-xL [1]; ligand proton HA to isoleucine protons, Sample 6 U-2H-{1H-I}-Bcl-xL) was >5 Å, the “Distance restraint derived” value (Bcl-xL [1]; ligand proton HA to methionine protons, Sample 7 U-2H-{1H-M}-Bcl-xL) was >5 Å and the “Distance restraint derived” value (Bcl-xL [1]; ligand proton HA to tyrosine protons, Sample 4 U-2H-{1H-Y}-Bcl-xL) was >5 Å. For the same molecule, the “Actual NOE intensity” value (Bcl-xL [1]; [3]) was “(175)”, the “Normalized NOE intensity” value (Bcl-xL [1]; [3]) was 100^a and the “Actual NOE intensity” value (Bcl-xL [1]; [4]) was “(17)”. For the same molecule, the “Normalized NOE intensity” value (Bcl-xL [1]; [4]) was 0, the “Actual NOE intensity” value (Bcl-xL [1]; ligand proton HA, Sample 3 U-2H-{1H-R}-Bcl-xL) was “(57)” and the “Actual NOE intensity” value (Bcl-xL [1]; ligand proton HA, Sample 4 U-2H-{1H-Y}-Bcl-xL) was “(22)”. For the same molecule, the “Actual NOE intensity” value (Bcl-xL [1]; ligand proton HA, Sample 5 U-2H-{1H-L}-Bcl-xL) was “(28)”, the “Actual NOE intensity” value (Bcl-xL [1]; ligand proton HA, Sample 6 U-2H-{1H-I}-Bcl-xL) was “(18)” and the “Actual NOE intensity” value (Bcl-xL [1]; ligand proton HA, Sample 7 U-2H-{1H-M}-Bcl-xL) was “(23)”. For the same molecule, the “Distance restraint derived” value (Bcl-xL [1]; ligand proton HD to leucine protons, Sample 5 U-2H-{1H-L}-Bcl-xL) was <3 Å, the “Actual NOE intensity” value (Bcl-xL [1]; [5]) was “(167)” and the “Normalized NOE intensity” value (Bcl-xL [1]; [5]) was 100. For the same molecule, the “Actual NOE intensity” value (Bcl-xL [1]; [6]) was “(28)”, the “Normalized NOE intensity” value (Bcl-xL [1]; [6]) was 0 and the “Actual NOE intensity” value (Bcl-xL [1]; ligand proton HD, Sample 3 U-2H-{1H-R}-Bcl-xL) was “(40)”. The “Actual NOE intensity” value (Bcl-xL [1]; ligand proton HD, Sample 4 U-2H-{1H-Y}-Bcl-xL) was “(59)”, the “Actual NOE intensity” value (Bcl-xL [1]; ligand proton HD, Sample 5 U-2H-{1H-L}-Bcl-xL) was “(93)” and the “Actual NOE intensity” value (Bcl-xL [1]; ligand proton HD, Sample 6 U-2H-{1H-I}-Bcl-xL) was “(40)”. For the same molecule, the “Actual NOE intensity” value (Bcl-xL [1]; ligand proton HD, Sample 7 U-2H-{1H-M}-Bcl-xL) was “(45)”, the “Distance restraint derived” value (Bcl-xL [1]; ligand protons HB/HC to arginine protons, Sample 3 U-2H-{1H-R}-Bcl-xL) was <5 Å and the “Distance restraint derived” value (Bcl-xL [1]; ligand protons HB/HC to isoleucine protons, Sample 6 U-2H-{1H-I}-Bcl-xL) was >5 Å. The “Distance restraint derived” value (Bcl-xL [1]; ligand protons HB/HC to leucine protons, Sample 5 U-2H-{1H-L}-Bcl-xL) was <5 Å, the “Distance restraint derived” value (Bcl-xL [1]; ligand protons HB/HC to methionine protons, Sample 7 U-2H-{1H-M}-Bcl-xL) was >5 Å and the “Actual NOE intensity” value (Bcl-xL [1]; [7]) was “(200)”. For the same molecule, the “Normalized NOE intensity” value (Bcl-xL [1]; [7]) was 100, the “Actual NOE intensity” value (Bcl-xL [1]; [8]) was “(32)” and the “Normalized NOE intensity” value (Bcl-xL [1]; [8]) was 0. For the same molecule, the “Actual NOE intensity” value (Bcl-xL [1]; ligand protons HB/HC, Sample 3 U-2H-{1H-R}-Bcl-xL) was “(70)”, the “Actual NOE intensity” value (Bcl-xL [1]; ligand protons HB/HC, Sample 4 U-2H-{1H-Y}-Bcl-xL) was “(49)” and the “Actual NOE intensity” value (Bcl-xL [1]; ligand protons HB/HC, Sample 5 U-2H-{1H-L}-Bcl-xL) was “(71)”. The “Actual NOE intensity” value (Bcl-xL [1]; ligand protons HB/HC, Sample 6 U-2H-{1H-I}-Bcl-xL) was “(30)”, the “Actual NOE intensity” value (Bcl-xL [1]; ligand protons HB/HC, Sample 7 U-2H-{1H-M}-Bcl-xL) was “(30)” and the “binding to Bcl-xL (NMR-based screening)” value (Bcl-xL [2]) was “ligand for Bcl-xL”.
